Measured values from US7348315B2, “Methods of treating heart failure with modified ATP, ADP and AMP compounds” (priority 1995, dated 2008).
Values belong to the molecule of their own block, whether it stands above or below them.

System: cardiac ventricular myocytes
Assay: Contractile amplitude of cultured cardiac ventricular myocytes (optico-video motion detection)
Type: cell-based, chick
Conditions: for maximal % increase in contractile amplitude: ventricular myocytes (chick embryo 14 days in ovo / adult rat), mean ± SE; for ability to stimulate an increase in contractile amplitude: FIGS. 1a-1d
From the text: […] Sen, L., Liang, B. T., Colucci, W. S., Smith, T. W., Circ. Res. 67:1182-1192 (1990), modified to include the use of a high-speed peristaltic pump (Masterflex from Cole-Palmer/Spectrum), choice of lots of collagenase, hyaluronidase and protease that give the highest proportion of rod-shaped myocytes, inclusion of bovine serum albumin containing various enzymes, and pre-plating with laminin-coated plates or glass coverslips (for contractility measurement) to eliminate damaged, rounded up myocytes. Specifically, hearts from Sprague-Dawley rats were perfused in a retrograde manner for 5 minutes in Krebs-Henseleit (KH) bicarbonate buffer containing 118 mM NaCl, 4.6 mM KCl, 1.2 mM MgSO4, 1.25 mM CaCl2, 1.2 mM KH2PO4, 25 mM NaHCO3, and 11 mM glucose, gassed with 95% O2/5% CO2/at pH 7.4 (37° C., and an osmolality of 287 mosm/liter). The perfusion buffer was changed to nominally Ca^2+-free KH buffer for 5 min to arrest spontaneous beating. The heart was then perfused with the Ca^2+-free KH buffer containing 0.05% collagenase (Worthington) and 0.03% hyaluronidase (Sigma Chem. Co., St. Louis, Mo.) for 20 min. After removing the atria and the great vessels, the ventricular tissue was finely minced in the same collagenase/hyaluronidase buffer described above except that trypsin (0.02 mg/ml, Sigma) and deoxyribonuclease (0.02 mg/ml, Sigma) was also added. The minced tissue was further incubated in this buffer at 37° C. with shaking to facilitate dissociation of individual ventricular myocytes. The dissociated cells containing some damaged cells were filtered and layered twice over a 6% bovine serum albumin gradient. The rod-shaped healthy heart cells sedimented more easily than the round damaged cells. After the second sedimentation through the 6% BSA gradient, the final pellet contains more than 90% rod-shaped heart cells.
Ventricular myocytes were cultured from chick embryos 14 days in ovo according to known procedures. Briefly, isolated ventricular myocytes from chick embryos 14 in ovo were prepared in calcium- and magnesium-free Hanks' balanced salt sodium (HBSS) containing 0.025% trypsin (GIBCO, Grand Island, N.Y.). After neutralization of trypsin medium containing horse serum and HBSS, cells were centrifuged and resuspended in culture medium containing 6% fetal bovine serum, 40% Medium 199 (GIBCO), 0.1% penicillin/streptomycin, and a salt solution. The final concentrations in the culture medium (in mmol/L) were Na 142, K 3.3, Mg 0.7, Ca 1.4, Cl 130, HCO3 16.4, and glucose 5.5. Cells were plated at a density of 400,000 cell per ml and cultivated in a humidified 5% CO2-95% […]
The cell isolation procedure was generally that of Kelly, R. A., Eid, H., Kramer, B. K., O'Neill, M., Liang, B. T., Reers, M., Smith, T. W., J. Clin. Invest. 86:1164-1171 (1990), […] Cells became confluent on day 3 in culture and contractility measurement was carried out on that day.
Measurement of contractile amplitude in cultured ventricular cells was carried out generally according to the methods of Xu, D., Kong, H., Liang, B. T., Circ. Res. 70:56-65 (1992), and Barry, W. H., and Smith, T. W., J. Physiol. (Lond) 325:243-260 (1982). […]

Molecule: CSc1nc(N)c2ncn([C@@H]3O[C@H](COP(=O)(O)OP(=O)(O)O)[C@@H](O)[C@H]3O)c2n1 [2-methylthio ADP]
effect on basal contractile amplitude (positive inotropic effect) (myocytes paced at 2 HZ, FIG. 7): pronounced positive inotropic effect

Molecule: Nc1ncnc2c1ncn2[C@@H]1O[C@H](COP(=O)(O)OP(=O)(O)O)[C@@H](O)[C@H]1O [ADP]
maximal % increase in contractile amplitude: 47.7±10%

Molecule: Nc1ncnc2c1ncn2[C@@H]1O[C@H](COP(=O)(O)OP(O)(O)=S)[C@@H](O)[C@H]1O [ADPβS]
maximal % increase in contractile amplitude: 76±15%

Molecule: Nc1ncnc2c1ncn2[C@@H]1O[C@H](COP(=O)(O)O)[C@@H](O)[C@H]1O [AMP]
maximal % increase in contractile amplitude: 9.6±4%

Molecule: Nc1ncnc2c1ncn2[C@@H]1O[C@H](COP(=O)(O)OP(=O)(O)OP(=O)(O)O)[C@@H](O)[C@H]1O [ATP]
maximal % increase in contractile amplitude: 89.7±9%

effect on contractile amplitude in presence of adenosine receptor antagonist 8-SPT (App(NH)p plus 8-sulfophenyltheophylline, FIG. 8): not mediated via the adenosine receptor
Molecule: Nc1ncnc2c1ncn2[C@@H]1O[C@H](COP(=O)(O)OP(=O)(O)NP(=O)(O)O)[C@@H](O)[C@H]1O [App(NH)p, adenylyl imidodiphospate]
effect on basal contractile amplitude (positive inotropic effect) (FIG. 8): pronounced positive inotropic effect

Molecule: O=c1ccn([C@@H]2O[C@H](COP(=O)(O)OP(=O)(O)OP(=O)(O)O)[C@@H](O)[C@H]2O)c(=O)[nH]1 [UTP]
ability to stimulate an increase in contractile amplitude: not capable of producing the same effect | desensitization of the positive inotropic response to ATP, ADPβS and UTP after pre-exposure (pre-exposure 100 μM, 60 minutes (2-methylthio ATP) or three hours (UTP)): failed to cause such desensitization | maximal % increase in contractile amplitude: 22±4%

Molecule: Nc1ncnc2c1ncn2[C@@H]1O[C@H](COP(N)(=O)O)[C@@H](O)[C@H]1O [adenosine 5′monophosphoramidate]
effect on basal contractile amplitude (positive inotropic effect) (myocytes paced at 2 HZ, FIG. 7): pronounced positive inotropic effect

Molecule: Nc1ncnc2c1ncn2[C@@H]1O[C@H](CO)[C@@H](O)[C@H]1O [adenosine]
maximal % increase in contractile amplitude: 15±4%

Molecule: Nc1ncnc2c1ncn2[C@@H]1O[C@H](COP(=O)(O)CP(=O)(O)OP(=O)(O)O)[C@@H](O)[C@H]1O [α,β-methylene ATP]
ability to stimulate an increase in contractile amplitude: not capable of producing the same effect | maximal % increase in contractile amplitude: −13±5%

Molecule: adenylyl 5′phosphoramidate
effect on basal contractile amplitude (positive inotropic effect) (myocytes paced at 2 HZ, FIG. 7): pronounced positive inotropic effect
